From US20240158446A1, “CYCLIC COMPOUND HAVING SELECTIVE INHIBITORY ACTION ON KRAS OVER HRAS AND NRAS” (CHUGAI SEIYAKU KABUSHIKI KAISHA, priority 2021, published 2024)

Legend:
[1] = biological target: GDP-bound HRAS wild-type protein (Homo sapiens, UniProt P01112); assay: Binding to HRAS by surface plasmon resonance (SPR), Single Cycle Kinetics; details: SPR, GDP-bound HRAS wild-type protein vs GDP-bound KRAS wild-type protein
[2] = biological target: GDP-bound NRAS wild-type protein (Homo sapiens, UniProt P01111); assay: Binding to NRAS by surface plasmon resonance (SPR), Single Cycle Kinetics; details: SPR, GDP-bound NRAS wild-type protein vs GDP-bound KRAS wild-type protein
Chain of GDP-bound NRAS wild-type protein (P01111 whole entry): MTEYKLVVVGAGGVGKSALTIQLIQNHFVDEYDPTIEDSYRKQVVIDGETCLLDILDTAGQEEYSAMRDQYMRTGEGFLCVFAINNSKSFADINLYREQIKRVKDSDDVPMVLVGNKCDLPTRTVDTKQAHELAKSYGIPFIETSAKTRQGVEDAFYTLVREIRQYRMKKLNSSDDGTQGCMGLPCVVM

[3] = biological target: GDP-bound KRAS wild-type protein (Homo sapiens, UniProt P01116); assay: Binding to KRAS by surface plasmon resonance (SPR), Single Cycle Kinetics; details: SPR, Single Cycle Kinetics, GDP-bound KRAS wild-type protein; read-out: KRAS KD
Chain of GDP-bound KRAS wild-type protein (P01116 whole entry): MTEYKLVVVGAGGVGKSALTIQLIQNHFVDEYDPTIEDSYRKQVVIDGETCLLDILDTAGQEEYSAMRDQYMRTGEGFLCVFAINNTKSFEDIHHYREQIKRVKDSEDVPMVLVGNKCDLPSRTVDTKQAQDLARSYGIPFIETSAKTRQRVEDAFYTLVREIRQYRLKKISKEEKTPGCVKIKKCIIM

Chain of GDP-bound HRAS wild-type protein (P01112 whole entry): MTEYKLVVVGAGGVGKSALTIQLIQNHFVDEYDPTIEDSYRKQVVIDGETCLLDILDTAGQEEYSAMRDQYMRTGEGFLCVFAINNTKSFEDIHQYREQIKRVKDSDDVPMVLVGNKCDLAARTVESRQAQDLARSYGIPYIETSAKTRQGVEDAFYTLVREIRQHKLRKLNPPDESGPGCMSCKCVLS

Row | Kd [3] [nM] | Compound | HRAS/KRAS (ratio of KD value for HRAS to KD value for KRAS) [1] | NRAS/KRAS (ratio of KD value for NRAS to KD value for KRAS) [2]
1 | 0.11 | CCO[C@@H]1C[C@H]2C(=O)NC3(CC(C)(C)C3)C(=O)N(C)[C@@H](C3CCCC3)C(=O)N(C)[C@H](C(=O)N3CCCC3)CC(=O)N(C)[C@H]3CCCCCc4ccc(cc4)C[C@@H](C(=O)N(C)CC(=O)N[C@@H](CCc4ccc(C(F)(F)F)c(OC)c4)C(=O)N2C1)N1CC/C=C\C[C@@H](C1=O)N(C)C(=O)CN(C)C(=O)[C@H]([C@@H](C)CC)NC3=O [PP3037, (1S,7S,11R,13S,19S,22S,26S,29S,35S,37Z)-19-cyclopentyl-11-ethoxy-7-[2-[3-methoxy-4-(trifluoromethyl)phenyl]ethyl]-3,3′,3′,18,21,25,31,34-octamethyl-29-[(1S)-1-methylpropyl]-22-(pyrrolidine-1-carbonyl)spiro[3,6,9,15,18,21,25,28,31,34,41-undecazapentacyclo[24.15.10.2^43,46.1^35,41.0^9,13]tetrapentaconta-37,43(53),44,46(52)-tetraene-16,1′-cyclobutane]-2,5,8,14,17,20,24,27,30,33,54-undecone] | B (a compound having 3 or more and less than 10 is denoted as B) | A (a compound having 10 or more and less than 20 is denoted as A)
2 | 0.15 | CCCO[C@@H]1C[C@H]2C(=O)NC3(CC(C)(C)C3)C(=O)N(C)[C@@H](C(CC)CC)C(=O)N(C)[C@H](C(=O)N(C)C)CC(=O)N(C)[C@H]3CCCCc4ccc(cc4)C[C@@H](C(=O)N(C)CC(=O)N[C@@H](CCc4ccc(C(F)(F)F)c(OC)c4)C(=O)N2C1)N1CC/C=C\C[C@@H](C1=O)N(C)C(=O)CN(C)C(=O)[C@H]([C@@H](C)CC)NC3=O [PP3038] | A (a compound having 10 or more and less than 20 is denoted as A) | A (a compound having 10 or more and less than 20 is denoted as A)
3 | 0.29 | CCO[C@@H]1C[C@H]2C(=O)NC3(CCC3)C(=O)N(C)[C@@H](C(CC)CC)C(=O)N(C)[C@H](C(=O)N3CCCC3)CC(=O)N(C)[C@H]3CCC/C=C/c4ccc(cc4)C[C@@H](C(=O)N(C)CC(=O)N[C@@H](CCc4ccc(Cl)c(Cl)c4)C(=O)N2C1)N1CC/C=C\C[C@@H](C1=O)N(C)C(=O)CN(C1CC1)C(=O)[C@H]([C@@H](C)CC)NC3=O [PP3040] | A (a compound having 10 or more and less than 20 is denoted as A) | AA (a compound having 20 or more is denoted as AA)
4 | 0.13 | CCO[C@@H]1C[C@H]2C(=O)NC3(CC(C)(C)C3)C(=O)N(C)[C@@H](C(CC)CC)C(=O)N(C)[C@H](C(=O)N(C)C)CC(=O)N(C)[C@H]3CCCC/C=C/c4ccc(cc4)C[C@@H](C(=O)N(C)CC(=O)N[C@@H](CCc4ccc(Cl)c(Cl)c4)C(=O)N2C1)N1CC/C=C\C[C@@H](C1=O)N(C)C(=O)CN(C)C(=O)[C@H]([C@@H](C)CC)NC3=O [PP3045] | A (a compound having 10 or more and less than 20 is denoted as A) | AA (a compound having 20 or more is denoted as AA)
5 | 0.18 | CCO[C@@H]1C[C@H]2C(=O)NC3(CCC3)C(=O)N(C)[C@@H](C(CC)CC)C(=O)N(C)[C@H](C(=O)N3CCCC3)CC(=O)N(C)[C@H]3CCCC/C=C/c4ccc(cc4)C[C@@H](C(=O)N(C)CC(=O)N[C@@H](CCc4ccc(Cl)c(Cl)c4)C(=O)N2C1)N1CC/C=C\C[C@@H](C1=O)N(C)C(=O)CN(C)C(=O)[C@H]([C@@H](C)CC)NC3=O [PP3047, (1S,7S,11R,13S,19S,22S,26S,29S,35S,37Z,47E)-7-[2-(3,4-dichlorophenyl)ethyl]-11-ethoxy-19-(1-ethylpropyl)-3,18,21,25,31,34-hexamethyl-29-[(1S)-1-methylpropyl]-22-(pyrrolidine-1-carbonyl)spiro[3,6,9,15,18,21,25,28,31,34,41-undecazapentacyclo[24.15.11.2^43,46.1^35,41.0^9,13]pentapentaconta-37,43(54),44,46(53),47-pentaene-16,1′-cyclobutane]-2,5,8,14,17,20,24,27,30,33,55-undecone] | A (a compound having 10 or more and less than 20 is denoted as A) | AA (a compound having 20 or more is denoted as AA)
6 | 0.11 | CCO[C@@H]1C[C@H]2C(=O)NC3(CC(C)(C)C3)C(=O)N(C)[C@@H](C(CC)CC)C(=O)N(C)[C@H](C(=O)N(C)C)CC(=O)N(C)[C@H]3CCCCC/C=C/c4ccc(cc4)C[C@@H](C(=O)N(C)CC(=O)N[C@@H](CCc4cc(F)c(C(F)(F)F)c(F)c4)C(=O)N2C1)N1CC/C=C\C[C@@H](C1=O)N(C)C(=O)CN(C)C(=O)[C@H]([C@@H](C)CC)NC3=O [PP3048] | A (a compound having 10 or more and less than 20 is denoted as A) | A (a compound having 10 or more and less than 20 is denoted as A)
7 | 0.29 | CCO[C@@H]1C[C@H]2C(=O)NC3(CC(C)(C)C3)C(=O)N(C)[C@@H](C(CC)CC)C(=O)N(C)[C@H](C(=O)N(C)C)CC(=O)N(C)[C@H]3CCCCC/C=C/c4ccc(cc4)C[C@@H](C(=O)N(C)CC(=O)N[C@@H](CCc4ccc(Cl)c(Cl)c4)C(=O)N2C1)N1CC/C=C\C[C@@H](C1=O)N(C)C(=O)CN(C)C(=O)[C@H]([C@@H](C)CC)NC3=O [PP3050] | A (a compound having 10 or more and less than 20 is denoted as A) | AA (a compound having 20 or more is denoted as AA)
8 | 0.26 | CCO[C@@H]1C[C@H]2C(=O)NC3(CCC3)C(=O)N(C)[C@@H](C(CC)CC)C(=O)N(C)[C@H](C(=O)N3CCCC3)CC(=O)N(C)[C@H]3CCCCC/C=C/c4ccc(cc4)C[C@@H](C(=O)N(C)CC(=O)N[C@@H](CCc4ccc(Cl)c(Cl)c4)C(=O)N2C1)N1CC/C=C\C[C@@H](C1=O)N(C)C(=O)CN(C)C(=O)[C@H]([C@@H](C)CC)NC3=O [PP3052] | A (a compound having 10 or more and less than 20 is denoted as A) | AA (a compound having 20 or more is denoted as AA)
9 | 0.16 | CC[C@H](C)[C@@H]1NC(=O)[C@@H]2CCC/C=C/c3ccc(cc3)C[C@@H](C(=O)N(C)CC(=O)N[C@@H](CCc3ccc(Cl)c(Cl)c3)C(=O)N3C[C@H](OC4CCC4)C[C@H]3C(=O)NC3(CC(C)(C)C3)C(=O)N(C)[C@@H](C3CCCC3)C(=O)N(C)[C@H](C(=O)N3CCCC3)CC(=O)N2C)N2CC/C=C\C[C@@H](C2=O)N(C)C(=O)CN(C)C1=O [PP3053] | A (a compound having 10 or more and less than 20 is denoted as A) | A (a compound having 10 or more and less than 20 is denoted as A)
10 | 0.27 | CC[C@H](C)[C@@H]1NC(=O)[C@@H]2CCC/C=C/c3ccc(cc3)C[C@@H](C(=O)N(C)CC(=O)N[C@@H](CCc3ccc(Cl)c(Cl)c3)C(=O)N3C[C@H](OC4CCCC4)C[C@H]3C(=O)NC3(CC(C)(C)C3)C(=O)N(C)[C@@H](C3CCCC3)C(=O)N(C)[C@H](C(=O)N3CCCC3)CC(=O)N2C)N2CC/C=C\C[C@@H](C2=O)N(C)C(=O)CN(C)C1=O [PP3054] | A (a compound having 10 or more and less than 20 is denoted as A) | A (a compound having 10 or more and less than 20 is denoted as A)
11 | 0.042 | CCO[C@@H]1C[C@H]2C(=O)N(C)C3(CC(C)(C)C3)C(=O)N(C)[C@@H](C3CCCC3)C(=O)N(C)[C@H](C(=O)N(C)C)CC(=O)N(C)[C@H]3CCC/C=C/c4ccc(cc4)C[C@@H](C(=O)N(C)CC(=O)N[C@@H](CCc4cc(F)c(C(F)(F)F)c(F)c4)C(=O)N2C1)N1CC/C=C\C[C@@H](C1=O)N(C)C(=O)CN(C)C(=O)[C@H]([C@@H](C)CC)NC3=O [PP3060] | B (a compound having 3 or more and less than 10 is denoted as B) | B (a compound having 3 or more and less than 10 is denoted as B)

Row | Compound | Kd [3] [nM] | HRAS/KRAS (ratio of KD value for HRAS to KD value for KRAS) [1] | NRAS/KRAS (ratio of KD value for NRAS to KD value for KRAS) [2]
12 | CCO[C@@H]1C[C@H]2C(=O)NC3(CC(C)(C)C3)C(=O)N(C)[C@@H](C3CCCC3)C(=O)N(C)[C@H](C(=O)N3CCCCC3)CC(=O)N(C)[C@H]3CCCCCc4ccc(cc4)C[C@@H](C(=O)N(C)CC(=O)N[C@@H](CCc4ccc(C(F)(F)F)c(OC)c4)C(=O)N2C1)N1CC/C=C\C[C@@H](C1=O)N(C)C(=O)CN(C)C(=O)[C@H]([C@@H](C)CC)NC3=O [PP3036, (1S,7S,11R,13S,19S,22S,26S,29S,35S,37Z)-19-cyclopentyl-11-ethoxy-7-[2-[3-methoxy-4-(trifluoromethyl)phenyl]ethyl]-3,3′,3′,18,21,25,31,34-octamethyl-29-[(1S)-1-methylpropyl]-22-(piperidine-1-carbonyl)spiro[3,6,9,15,18,21,25,28,31,34,41-undecazapentacyclo[24.15.10.2^43,46.1^35,41.0^9,13]tetrapentaconta-37,43(53),44,46(52)-tetraene-16,1′-cyclobutane]-2,5,8,14,17,20,24,27,30,33,54-undecone] | 0.17 | B (a compound having 3 or more and less than 10 is denoted as B) | A (a compound having 10 or more and less than 20 is denoted as A)
13 | CCO[C@@H]1C[C@H]2C(=O)NC3(CCC3)C(=O)N(C)[C@@H](C(CC)CC)C(=O)N(C)[C@H](C(=O)N3CCCCC3)CC(=O)N(C)[C@H]3CCCC/C=C/c4ccc(cc4)C[C@@H](C(=O)N(C)CC(=O)N[C@@H](CCc4ccc(Cl)c(Cl)c4)C(=O)N2C1)N1CC/C=C\C[C@@H](C1=O)N(C)C(=O)CN(C)C(=O)[C@H]([C@@H](C)CC)NC3=O [PP3046] | 0.39 | A (a compound having 10 or more and less than 20 is denoted as A) | AA (a compound having 20 or more is denoted as AA)
